According to article PMC6134108, “Nystatin-like Pseudonocardia polyene B1, a novel disaccharide-containing antifungal heptaene antibiotic” (Scientific Reports, 2018):
Converted amounts (≈) assume the structure as drawn. Read-outs that look alike come from different tables or passages of the source.

Assays:
[1] = tested on: C. albicans SC5314; experiment: MIC assay (CLSI M27-A3 microbroth); assay type: cell-based; conditions: Candida albicans; C. albicans SC5314; no visible growth; read-out: Antifungal activity (MIC)
Protocol: (§1) For the minimum inhibitory concentration (MIC) assay, strains for testing were grown on YPD agar for 24 hours, and subcultured to YPD broth medium. Whole strains were incubated for 18 hours at 35 °C by shaking incubator. Grown organisms were diluted with fresh RPMI 1640 medium to appropriate concentration, 5 × 10^4 CFU/ml. Cultures were inoculated to 96-well plates containing antifungal medium. All compounds were dissolved using Dimethyl Sulfoxide (DMSO) and diluted broth media. Fungal diluted solution and antifungal medium were mixed at 1:1 ratio so total 200 ul mixed medium was made. Whole experiment plates were incubated for 24 hours at 37 °C. […] The MICs were calculated in duplicate using the Clinical and Laboratory Standards Institute M27-A3 microbroth methodology. Hemolysis experiments and the 3-(4,5-dimethylthiazol-2-yl)-5-(3-carboxymethoxyphenyl)-2-(4-sulfophenyl)-2H-tetrazolium (MTS) cell proliferation colorimetric assay were performed following known procedures[12],[27],[29].

[2] = tested on: C. albicans SL28; experiment: MIC assay (CLSI M27-A3 microbroth); assay type: cell-based; conditions: Candida albicans; C. albicans SL28; no visible growth; read-out: Antifungal activity (MIC)
Protocol: as §1

[3] = tested on: C. albicans SL38; experiment: MIC assay (CLSI M27-A3 microbroth); assay type: cell-based; conditions: Candida albicans; C. albicans SL38; no visible growth; read-out: Antifungal activity (MIC)
Protocol: as §1

[4] = tested on: Candida albicans KCTC7965; experiment: MIC assay (CLSI M27-A3 microbroth); assay type: cell-based; conditions: Candida albicans KCTC7965; no visible growth; read-out: Antifungal activity (MIC)
Protocol: as §1

[5] = tested on: Cryptococcus humicola ATCC9949; experiment: MIC assay (CLSI M27-A3 microbroth); assay type: cell-based; conditions: Vanrija humicola; Cryptococcus humicola ATCC9949; read-out: Antifungal activity (MIC)
Protocol: as §1

[6] = tested on: Saccharomyces cerevisiae ATCC9035; experiment: MIC assay (CLSI M27-A3 microbroth); assay type: cell-based; conditions: Saccharomyces cerevisiae ATCC9035; read-out: Antifungal activity (MIC)
Protocol: as §1

[7] = tested on: horse blood cells; assay type: cell-based; conditions: 90% hemolysis against horse blood cells; ± percentage standard deviation
Protocol: as §1

[8] = Microsomal (metabolic) stability; assay type: in vitro ADME; conditions: human liver microsomes 1.0 mg/ml
Protocol: A metabolic stability experiment was conducted to calculate the rate of disappearance of polyene macrolides following in vitro incubation with human microsomes. Working solutions of polyene macrolides were prepared from a 10 mM stock solution in dimethyl sulfoxide (DMSO) diluted to a final concentration of 1 µM in 0.1 M potassium phosphate buffer (pH 7.4). Each incubation mixture included 1 mg/mL human microsomal protein (BD Gentest^TM, Franklin Lakes, NJ, USA) and 1 mM NADPH. The reactions were terminated at 0, 15, 45, and 80 min. The reaction mixtures were vigorously vortexed and then analyzed using the API2000 LC-MS/MS) system (Applied Biosystems, USA) using an Xterra MS C18 (3.5-µm, 2.1 × 50 mm, Waters).

[9] = in vivo; conditions: mouse, 1 mg/kg
Source text: Supplement 41598_2018_31801_MOESM1_ESM.docx, table 4: Table S4.

[10] = Single intravenous dose acute toxicity; assay type: in vivo, mice; conditions: ICR, mouse, in vivo, single intravenous administration
Protocol: (§2) All in vivo mouse toxicity studies were conducted according to Testing Guidelines for Safety Evaluation of Drugs[32] and the Organisation for Economic Co-operation and Development (OECD) Guideline[33]. Male and female ICR mice were used 7 weeks old for the toxicity test. […] The single doses were 1, 2.5, and 5 mg per kg body weight.

[11] = tested on: ICR mice; experiment: Single intravenous dose acute toxicity; assay type: in vivo
Protocol: as §2

[12] = tested on: ergosterol-containing membranes; experiment: Preliminary SPR experiments; assay type: binding; conditions: ergosterol-containing membranes, unpublished data
[13] = 1 mg/kg dose
[14] = in vivo; conditions: male, SD, rat, iv, 0.5 mg/kg

## C[C@@H]1[C@H](O)[C@@H](C)/C=C/C=C/C=C/C=C/C=C/C=C/C=C/[C@H](O[C@@H]2O[C@H](C)[C@@H](O)[C@H](N)[C@@H]2O)C[C@@H]2O[C@](O)(C[C@@H](O)C[C@@H](O)[C@H](O)CC[C@@H](O)C[C@@H](O)CC(=O)O[C@H]1C)C[C@H](O)[C@H]2C(=O)O [Amphotericin B, amphotericin B]
[1]
  MIC: 1 µg/mL (≈ 1.08 µM)
[2]
  MIC: 1 µg/mL (≈ 1.08 µM)
[3]
  MIC: 1 µg/mL (≈ 1.08 µM)
[4]
  MIC: 1 µg/mL (≈ 1.08 µM)
[5]
  MIC: 0.5 µg/mL (≈ 0.541 µM)
[6]
  MIC: 1 µg/mL (≈ 1.08 µM)
[7]
  Hemolytic activity (MHC, minimum hemolytic concentration): 4.65 ± 0.17 µg/mL
[8]
  Clearance class: Low
[8]; pH 7.4
  half-life at 1 µM: > 1.33 h
  microsomal CLint at 1 µM: < 8600 µL/min/mg
[8]; pH 7.4, 1 µM, 80-min incubation
  remaining at 80 min, 1 µM: 101%
[9]
  AUC(0-inf): 29300 ng·h/mL
  AUC(0-t): 22200 ng·h/mL
  MRT inf: 5.5 h
  Vd: 0.2 L/kg
  clearance: 0.5 mL/min/kg
  half-life: 3.4 h
[10]; female mice, read-out: median lethal dose (LD50)
  LD50 at 7 days: 1.6 mg/kg
[10]; male mice, read-out: median lethal dose (LD50)
  LD50 at 7 days: 2.95 mg/kg
[10]; both sexes, mice, read-out: LD50, median lethal dose (dose causing 50% mortality)
  LD50 at 7 days: 2.3 mg/kg
[11]; female, single iv 1mg/kg, day 0
  Deaths on day after start of treatment: 0
[11]; female, single iv 1mg/kg, day 1
  Deaths on day after start of treatment: 0
[11]; female, single iv 1mg/kg, day 2
  Deaths on day after start of treatment: 1
[11]; female, single iv 1mg/kg, day 3
  Deaths on day after start of treatment: 0
[11]; female, single iv 1mg/kg, day 4
  Deaths on day after start of treatment: 0
[11]; female, single iv 1mg/kg, day 5
  Deaths on day after start of treatment: 0
[11]; female, single iv 1mg/kg, day 6
  Deaths on day after start of treatment: 0
[11]; female, single iv 1mg/kg, day 7
  Deaths on day after start of treatment: 0
[11]; female, single iv 2.5mg/kg, day 0
  Deaths on day after start of treatment: 0
[11]; female, single iv 2.5mg/kg, day 1
  Deaths on day after start of treatment: 1
[11]; female, single iv 2.5mg/kg, day 2
  Deaths on day after start of treatment: 3
[11]; female, single iv 2.5mg/kg, day 3
  Deaths on day after start of treatment: 0
[11]; female, single iv 2.5mg/kg, day 4
  Deaths on day after start of treatment: 0
[11]; female, single iv 2.5mg/kg, day 5
  Deaths on day after start of treatment: 0
[11]; female, single iv 2.5mg/kg, day 6
  Deaths on day after start of treatment: 1
[11]; female, single iv 2.5mg/kg, day 7
  Deaths on day after start of treatment: 0
[11]; female, single iv 5mg/kg, day 0
  Deaths on day after start of treatment: 4
[11]; female, single iv 5mg/kg, day 1
  Deaths on day after start of treatment: 0
[11]; female, single iv 5mg/kg, day 2
  Deaths on day after start of treatment: 1
[11]; female, single iv 5mg/kg, day 3
  Deaths on day after start of treatment: 0
[11]; female, single iv 5mg/kg, day 4
  Deaths on day after start of treatment: 0
[11]; female, single iv 5mg/kg, day 5
  Deaths on day after start of treatment: 0
[11]; female, single iv 5mg/kg, day 6
  Deaths on day after start of treatment: 0
[11]; female, single iv 5mg/kg, day 7
  Deaths on day after start of treatment: 0
[11]; male, single iv 1mg/kg, day 0
  Deaths on day after start of treatment: 0
[11]; male, single iv 1mg/kg, day 1
  Deaths on day after start of treatment: 0
[11]; male, single iv 1mg/kg, day 2
  Deaths on day after start of treatment: 0
[11]; male, single iv 1mg/kg, day 3
  Deaths on day after start of treatment: 0
[11]; male, single iv 1mg/kg, day 4
  Deaths on day after start of treatment: 0
[11]; male, single iv 1mg/kg, day 5
  Deaths on day after start of treatment: 0
[11]; male, single iv 1mg/kg, day 6
  Deaths on day after start of treatment: 0
[11]; male, single iv 1mg/kg, day 7
  Deaths on day after start of treatment: 0
[11]; male, single iv 2.5mg/kg, day 0
  Deaths on day after start of treatment: 0
[11]; male, single iv 2.5mg/kg, day 1
  Deaths on day after start of treatment: 0
[11]; male, single iv 2.5mg/kg, day 2
  Deaths on day after start of treatment: 2
[11]; male, single iv 2.5mg/kg, day 3
  Deaths on day after start of treatment: 0
[11]; male, single iv 2.5mg/kg, day 4
  Deaths on day after start of treatment: 0
[11]; male, single iv 2.5mg/kg, day 5
  Deaths on day after start of treatment: 0
[11]; male, single iv 2.5mg/kg, day 6
  Deaths on day after start of treatment: 0
[11]; male, single iv 2.5mg/kg, day 7
  Deaths on day after start of treatment: 0
[11]; male, single iv 5mg/kg, day 0
  Deaths on day after start of treatment: 5
[11]; male, single iv 5mg/kg, day 1
  Deaths on day after start of treatment: 0
[11]; male, single iv 5mg/kg, day 2
  Deaths on day after start of treatment: 0
[11]; male, single iv 5mg/kg, day 3
  Deaths on day after start of treatment: 0
[11]; male, single iv 5mg/kg, day 4
  Deaths on day after start of treatment: 0
[11]; male, single iv 5mg/kg, day 5
  Deaths on day after start of treatment: 0
[11]; male, single iv 5mg/kg, day 6
  Deaths on day after start of treatment: 0
[11]; male, single iv 5mg/kg, day 7
  Deaths on day after start of treatment: 0
[12]
  affinity compared with NPP B1: higher affinity
[13]
  lethality in rats: killed all the tested rats
[14]; in vivo
  half-life: 8.3 h
[14]; plasma
  AUC(0-inf): 1680 ng·h/mL
  AUC(0-t): 415 ng·h/mL
  MRT inf: 11.6 h
  Vd: 3.5 L/kg
  clearance: 5 mL/min/kg
